The results in this text go back to ChEMBL document CHEMBL1146980, “Synthesis and antitumor activity of icogenin and its analogue” (Bioorg Med Chem Lett, 2006).

Holding throughout (assay type): functional, cell-based
The test system of one assay is PANC-1. Briefly: Cytotoxicity against human PANC1 cells by MTT assay. A general note: Tetrazolium assays rely on reduction of a dye to a coloured formazan, in cell work by metabolically active cells.
The next assay concerns NCI-H460. The experiment in a line: Cytotoxicity against human H460 cells by MTT assay.
A further assay concerns BGC-823. The experiment in a line: Cytotoxicity against human BGC823 cells by MTT assay.
The subject of a further assay is Bel-7402. The experiment in a line: Cytotoxicity against human BEL-7402 cells by MTT assay.
The subject of another assay is PC-3. The experiment in a line: Cytotoxicity against human PC3M cells by MTT assay.
Another assay deals with A-431. Briefly: Cytotoxicity against human A431 cells by MTT assay.
For the next assay, the system named is KETR3. The experiment in a line: Cytotoxicity against human KETR3 cells by MTT assay.
Another assay has as its system HCT-8. The experiment in a line: Cytotoxicity against human HCT8 cells by MTT assay.

Take `CO[C@]1(CC[C@H](C)CO)O[C@H]2C[C@H]3[C@@H]4CC=C5C[C@@H](O[C@H]6O[C@H](CO)[C@@H](O)[C@H](O[C@@H]7O[C@H](CO)[C@@H](O)[C@H](O)[C@H]7O)[C@H]6O[C@@H]6O[C@@H](C)[C@H](O)[C@@H](O)[C@H]6O)CC[C@]5(C)[C@H]4CC[C@]3(C)[C@H]2[C@@H]1C`: the IC50 in the assay with PANC-1 turned out to be 380 nM; in the assay with NCI-H460 it was 8160 nM; in the assay on BGC-823 it was 2520 nM; with Bel-7402, 950 nM; in the assay on PC-3, 2760 nM; in the assay with A-431, 670 nM. Further, the IC50 in the assay on KETR3 was found to be 3780 nM; with HCT-8, 1420 nM.
Regarding `CO[C@]1(CC[C@H](C)CO)O[C@H]2C[C@H]3[C@@H]4CC=C5C[C@@H](O[C@@H]6O[C@H](CO)[C@@H](O)[C@H](O[C@@H]7O[C@H](CO)[C@@H](O)[C@H](O)[C@H]7O)[C@H]6O[C@@H]6O[C@@H](C)[C@H](O)[C@@H](O)[C@H]6O)CC[C@]5(C)[C@H]4CC[C@]3(C)[C@H]2[C@@H]1C` [ICOGENIN], the half-maximal inhibitory concentration (IC50) is 270 nM in the assay with PANC-1; more than 10000 nM with NCI-H460; more than 10000 nM in the assay on BGC-823; 750 nM in the assay with Bel-7402; 4350 nM in the assay on PC-3; 3440 nM in the assay on A-431. In addition, the results for the concentration for half-maximal inhibition (IC50) in the assay on KETR3 and in the assay with HCT-8 were 5150 nM and 1450 nM, respectively.

One may read the IC50 as the point on the concentration scale where inhibition reaches its midpoint. The low end stands for inhibition by little substance, the high end for a need for much substance.
